Key:
[1] = target: RgNanA (RUMGNA_02692, sialic acid aldolase) (Mediterraneibacter gnavus, UniProt A7B555); assay: Sialic acid aldolase activity assay coupled to lactate dehydrogenase, RgNanA; conditions: 10 mM sialic acid, 37° C., pH 7.0, A340 nm
Protocol: Aldolase cleavage was measured by monitoring the decrease in absorbance at 340 nm (A340 nm) as NADH is converted to NAD by lactate dehydrogenase in a coupled reaction where pyruvate is released from sialic acid by the aldolase. Reactions were performed in a 100 μl volume with final concentrations of 150 μM NADH (Sigma, St Louis, USA), 0.5 U LDH (Sigma, St Louis, USA), 10 mM sialic acid (Neu5Ac or 2,7-anhydro-Neu5Ac) and 1.5 μg purified RgNanA or EcNanA (E. coli aldolase CAS: 9027-60-5, Carbosynth, UK) in 50 mM Na-phosphate buffer (pH 7.0). The reactions were performed at 37° C. and monitored using FLUOstar OPTIMA (BMG LABTECH). For kinetics experiments, the sialic acid concentration was varied at 20, 10, 5, 4, 2, 1, 0.4, 0.2, 0.1 mM and the initial rate of reaction determined for each concentration in triplicate before analysis was performed by fitting the data to a Michaelis-Menten using Graph Pad Prism (V 5.03).
The substrate specificity of RgNanA was determined using a coupled activity assay where pyruvate released during the conversion of sialic acid to ManNAc is converted to lactate by a lactate dehydrogenase and the subsequent loss of absorbance at 340 nm measured as NADH is converted to NAD^+. A commercially available E. coli sialic acid aldolase (EcNanA) was included as a control and enzymes were tested for activity against 2,7-anhydro-Neu5Ac and Neu5Ac. […] The kinetic parameters of RgNanA were determined by calculating the initial rate of reaction with increasing Neu5Ac concentrations. A Michaelis-Menten curve was fitted to the data and kinetic parameters determined (FIG. 7b).

[2] = target: T1, RUMGNA_02695 (RgNanOx, oxidoreductase) (Mediterraneibacter gnavus, UniProt A7B558); assay: RUMGNA_02695 enzymatic activity assay; format: biochemical, R. gnavus ATCC 29149
T1 construct: the full length RgNanA and full length RUMGNA_02695 were amplified from R. gnavus ATCC 29149 gDNA; His6 (pHISTEV vector) (N); made in house; host or cells: E. coli BL21
Protocol: To assay RUMGNA_02695 activity against 2,7-anhydro-Neu5Ac, the purified recombinant protein was incubated in 100 μl reactions at 37° C. overnight with 1 mM 2,7-anhydro-Neu5Ac, 50 mM sodium phosphate buffer pH 7.0 and 500 μM NADH, NAD, FAD or no cofactor. The reactions were dried using a Concentrator Plus (Eppendorf) for 1 h. Samples were then resuspended in 50 μl of water and 50 μl of reaction buffer (1.74 mg of 1,2-Diamino-4,5-methylenedioxybenzene dihydrochloride (Carbosynth, UK), 324.6 μl MilliQ water, 88.6 μl glacial acetic acid, 58.2 μl of β-Mercaptoethanol and 79.3 μl of sodium hydrosulphite) and incubated for 2 h at 55° C. in the dark. The samples were then centrifuged for 1 min and filtered using a 0.45 μm filter into a glass HPLC vial and directly analysed by HPLC.
DMB-labelled samples were analysed by injecting 10 μl onto a Luna 5 μm C-18(2) LC column 250×4.6 mm (Phenomenex) at 1 ml/min. Mobile phases methanol/acetonitrile/water were used for separation of fluorescently labelled sialic acids. The settings of the fluorescence detector were 373 nm excitation and 448 nm emission. Samples were run alongside a Neu5Ac standard.
To determine the kinetic parameters of RUMGNA_02695 enzymatic reaction, a coupled reaction with lactate dehydrogenase and sialic acid aldolase was carried out as described above but with 15 μg of RgNanA and 10 μg RUMGNA_02695 in each reaction. For the kinetics assays, 1, 0.4, 0.2, 0.1, 0.04, 0.02 and 0.01 mM 2,7-anhydro-Neu5Ac was used and the initial rate of reaction determined for each concentration in triplicate before analysis was performed by fitting the data to a Michaelis-Menten using Graph Pad Prism (V 5.03).
Electrospray ionisation spray mass spectrometry (ESI-MS) analysis was performed using the Applied Biosystems 4000 Q-TRAP. The full 100 μl reaction was diluted with 500 ul of 50% Acetonitrile and 0.1% formic acid and samples analysed in negative ion mode using direct injection.

RgSBP = assay: Saturation transfer difference (STD) NMR with RgSBP; format: binding, R. gnavus ATCC 29149; conditions: RgSBP 50 μM with 2,7-anhydro-Neu5Ac 0.5 mM and Neu5Ac 1 mM
Protocol: An amicon centrifuge filter unit with a 10 kDa MW cut-off was used to exchange the protein in 25 mM d19-2,2-bis (hydroxymethyl)-2,2′,2″-nitrilotriethanol pH* 7.4 (uncorrected for the deuterium isotope effect on the pH glass electrode) D2O buffer and 50 mM NaCl. 2,7-anhydro-Neu5Ac and Neu5Ac were dissolved in 25 mM d19-2,2-bis(hydroxymethyl)-2,2′,2″-nitrilotriethanol pH* 7.4, 50 mM NaCl. Characterization of ligand binding by Saturation Transfer Difference NMR Spectroscopy (Mayer, M. and Meyer, B. (1999) was performed on a Bruker Avance 800.23 MHz at 298 K. The on- and off-resonance spectra were acquired using a train of 50 ms Gaussian selective saturation pulses using a variable saturation time from 0.5 s to 4 s, for binding epitope mapping determination while only 0.5 s of saturation time for each selected frequency was used to perform the DEEP-STD NMR experiments (Monaco et al., 2017). The water signal was suppressed by using the excitation sculpting technique (Hwang et al., 1995), while the remaining protein resonances were filtered using a T2 filter of 40 ms. All the spectra were performed with a spectral width of 10 KHz and 32768 data points using 256 or 512 scans. This time due to the absence of a 3D structure it was impossible to derive the resonances for saturation of aliphatic and aromatic residues found in the binding site as required by the DEEP-STD NMR technique. […]

[3] = coupled reaction with excess aldolase and lactate dehydrogenase

T1 sequence (A7B558 whole entry): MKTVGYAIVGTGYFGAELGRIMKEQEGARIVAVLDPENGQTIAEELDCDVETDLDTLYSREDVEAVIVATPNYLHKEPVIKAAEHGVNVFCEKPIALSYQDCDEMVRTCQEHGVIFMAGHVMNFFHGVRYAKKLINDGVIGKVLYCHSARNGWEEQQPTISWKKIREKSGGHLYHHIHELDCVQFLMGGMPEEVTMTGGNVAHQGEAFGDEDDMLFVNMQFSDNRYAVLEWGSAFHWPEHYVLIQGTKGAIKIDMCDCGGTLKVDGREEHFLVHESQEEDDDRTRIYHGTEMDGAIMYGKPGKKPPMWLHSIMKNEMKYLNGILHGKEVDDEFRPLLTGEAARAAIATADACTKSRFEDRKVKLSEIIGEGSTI
Chain of RgNanA (RUMGNA_02692, sialic acid aldolase) (A7B555 whole entry): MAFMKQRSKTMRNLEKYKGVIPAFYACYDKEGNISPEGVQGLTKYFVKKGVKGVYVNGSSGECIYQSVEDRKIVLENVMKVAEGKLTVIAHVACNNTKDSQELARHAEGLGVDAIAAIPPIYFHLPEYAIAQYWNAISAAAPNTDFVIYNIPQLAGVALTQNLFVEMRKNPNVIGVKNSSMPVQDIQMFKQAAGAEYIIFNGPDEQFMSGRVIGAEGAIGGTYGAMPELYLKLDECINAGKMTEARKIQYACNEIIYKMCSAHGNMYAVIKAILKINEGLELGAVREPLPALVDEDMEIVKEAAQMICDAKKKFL

Compound	aldolase activity against substrate [1]	reaction product by HPLC after DMB labelling ([2]; 1 mM substrate, in the presence of NAD+ or NADH, not with FAD or without cofactor)	Km [2, 3] [µM]	kcat [2, 3] [s⁻¹]	transfer of magnetization as saturation from the protein to the ligand (RgSBP)
CC(=O)N[C@H]1C2OC(C(=O)O)(C[C@@H]1O)O[C@@H]2[C@H](O)CO (stereo partly shown) [2,7-anhydro-Neu5Ac]	neither enzyme showed activity	Neu5Ac was observed as a reaction product	74 ± 14	0.0824 ± 0.0043	clearly observed
CC(=O)N[C@H]1[C@H]([C@H](O)[C@H](O)CO)OC(O)(C(=O)O)C[C@@H]1O (stereo partly shown) [Neu5Ac, N-acetylneuraminic acid]	showed activity	–	–	–	complete absence of saturation transfer

Reference: patent US20210254138A1, “SIALIC ACID TRANSPORTER PROTEINS AS BIOMARKERS AND DRUG TARGETS” (Quadram Institute Bioscience, priority 2018, published 2021)
